According to US5420140A, “Difluorinated quinolones useful for treating bacterial infections” (Bouchara S.A., priority 1991, dated 1995):
≈ marks a conversion by molar mass, not a printed value.

Legend:
[1] = test system: Staphylococcus aureus ATCC 25923; experiment: Determination of MIC and MBC by microdilution method, Staphylococcus aureus ATCC 25923; assay type: cell-based; conditions: for MIC / MBC: Staphylococcus aureus; for MIC: ATCC25923, 18 h, read-out: Minimal inhibitory concentration (MIC); for MBC: ATCC25923, S. aureus ATCC 25923, read-out: Minimal bactericidal concentration (MBC)
Method: (§1) The compound have been tested towards 7 reference strains:
Staphylococcus aureus ATCC 25923
(§2) The determination of minimal inhibitory concentrations (MIC) has been performed using a microdution method (microplates and inoculator Dynatech) in liquid medium (MUELLER-HINTON broth) under a volume of 100 μl and for a range of concentrations from 128 to 0.06 mg/l, prepared from a mother liquor of antibiotics titrating 512 mg/l. The preparation of these mother liquors has been performed and vary depending on the molecules as a function of the solubility criterions. Inoculation has been done by adding in each will, 10 μl of a dilution in saline of 18 hours old broth in a brain-heart broth, such as each well contains about 10^6 bacterias/ml.
(§3) The Minimal Inhibitory Concentrations are read as the first concentration of antibiotic which will not give a growth macroscopically detectable after 18 hours incubating at 37°.

[2] = test system: Streptococcus faecalis ATCC 8043; experiment: Determination of MIC and MBC by microdilution method, Streptococcus faecalis ATCC 8043; assay type: cell-based; conditions: for MBC / MIC: Enterococcus faecalis; for MBC: ATCC8043, S. faecalis ATCC 8043, read-out: Minimal bactericidal concentration (MBC); for MIC: ATCC8043, read-out: Minimal inhibitory concentration (MIC)
Method: as §1
Streptococcus faecalis ATCC 8043
(§4) The preparation of these mother liquors has been performed and vary depending on the molecules as a function of the solubility criterions. Inoculation has been done by adding in each will, 10 μl of a dilution in saline of 18 hours old broth in a brain-heart broth, such as each well contains about 10^6 bacterias/ml. […]

[3] = test system: Acinetobacter Baumanii ATCC 17904; experiment: Determination of MIC and MBC by microdilution method, Acinetobacter; assay type: cell-based; conditions: for MIC / MBC: Acinetobacter baumannii; for MIC: ATCC17904, 18 h, read-out: Minimal inhibitory concentration (MIC); for MBC: ATCC17904, Acinetobacter Baumanii ATCC 17904, read-out: Minimal bactericidal concentration (MBC)
Method: The compound have been tested towards 7 reference strains: […]
as §2, §3

S. aureus CB-951 = experiment: Determination of MIC and MBC by microdilution method, S. aureus CB-951; assay type: cell-based, Staphylococcus aureus; conditions: erythromycinolincomycino, pefloxacino resistant; for MIC / MBC: Staphylococcus aureus; for MIC: CB951, 18 h, read-out: Minimal inhibitory concentration (MIC); for MBC: CB951, S. aureus CB-951, methicillino, read-out: Minimal bactericidal concentration (MBC)
Method: as §1
Staphylococcus aureus CB 951
as §2, §3

[4] = test system: Pseudomonas aeruginosa ATCC 22853; experiment: Determination of MIC and MBC by microdilution method, Pseudomonas aeruginosa ATCC 22853; assay type: cell-based; conditions: for MIC / MBC: Pseudomonas aeruginosa; for MIC: ATCC22853, 18 h, read-out: Minimal inhibitory concentration (MIC); for MBC: ATCC22853, P. aeruginosa ATCC 22853, read-out: Minimal bactericidal concentration (MBC)
Method: as §1
Pseudomonas aeruginosa ATCC 22853
as §4

[5] = test system: Escherichia coli ATCC 25922; experiment: Determination of MIC and MBC by microdilution method, Escherichia coli ATCC 25922; assay type: cell-based; conditions: E. coli ATCC 25922; for MIC / MBC: Escherichia coli, ATCC25922; for MIC: read-out: Minimal inhibitory concentration (MIC); for MBC: read-out: Minimal bactericidal concentration (MBC)
Method: as §1
Escherichia coli ATCC 25922
as §2, §3

[6] = S. aureus ATCC 25923, Mueller-Hinton broth, 18 hours at 37°
[7] = S. faecalis ATCC 8043, Mueller-Hinton broth, 18 hours at 37°
[8] = Acinetobacter Baumanii ATCC 17904, Mueller-Hinton broth, 18 hours at 37°
[9] = S. aureus CB-951, methicillino, Mueller-Hinton broth, 18 hours at 37°
[10] = P. aeruginosa ATCC 22853, Mueller-Hinton broth, 18 hours at 37°
[11] = Mueller-Hinton broth, 18 hours at 37°

| Compound | MIC [1, 6] [µg/mL] | MBC [1] [µg/mL] | MBC [2] [µg/mL] | MIC [2, 7] [µg/mL] | MIC [3, 8] [µg/mL] | MBC [3] [µg/mL] | MIC (S. aureus CB-951; [9]) [µg/mL] | MBC (S. aureus CB-951) [µg/mL] | MIC [4, 10] [µg/mL] | MBC [4] [µg/mL] | MIC [5, 11] [µg/mL] | MBC [5] [µg/mL] | further results |
| --- | --- | --- | --- | --- | --- | --- | --- | --- | --- | --- | --- | --- | --- |
| NCC1CCN(c2c(F)cc3c(=O)c(C(=O)O)cn(Cc4ccc(F)cc4)c3c2F)CC1 [Compound 4, 7-(4-aminomethylpiperidinyl-1) 6,8-difluoro 1-(4-fluorobenzyl) 4-oxo 1,4-dihydroquinoleinyl-3 carboxylic acid] | 12 (≈ 26.9 µM) | 12 (≈ 26.9 µM) | 12 (≈ 26.9 µM) | > 12 | 12 (≈ 26.9 µM) | > 12 | > 12 | 12 (≈ 26.9 µM) | > 12 | > 12 | > 12 | > 12 | – |
| CCn1cc(C(=O)O)c(=O)c2cc(F)c(N3CCN(C)CC3)cc21 [Pefloxacine, reference compound] | 0.12 (≈ 0.36 µM) | 0.25 (≈ 0.75 µM) | 1 (≈ 3 µM) | 1 (≈ 3 µM) | 0.06 (≈ 0.18 µM) | 0.06 (≈ 0.18 µM) | 4 (≈ 12 µM) | 4 (≈ 12 µM) | 2 (≈ 6 µM) | 2 (≈ 6 µM) | 0.06 (≈ 0.18 µM) | 0.06 (≈ 0.18 µM) | – |
| NCC1CCN(c2c(F)cc3c(=O)c(C(=O)O)cn(Cc4ccccc4Cl)c3c2F)CC1 [Compound 5, 7-(4-aminomethylpiperidinyl-1) 6,8-difluoro 1-(2-chlorobenzyl) 4-oxo 1,4-dihydroquinoleinyl-3 carboxylic acid] | 2 (≈ 4.33 µM) | 4 (≈ 8.66 µM) | > 16 | 16 (≈ 34.6 µM) | 4 (≈ 8.66 µM) | 8 (≈ 17.3 µM) | > 16 | > 16 | > 16 | > 16 | 4 (≈ 8.66 µM) | 8 (≈ 17.3 µM) | – |
| CCn1cc(C(=O)O)c(=O)c2cc(F)c(N3CCC(CNC(=O)Nc4ccccc4)CC3)c(F)c21 [Compound 10, 7-[(4-Phenylaminocarboxamidomethyl)piperidinyl-1] 6,8-difluoro 1-ethyl 4-oxo 1,4-dihydroquinoleinyl-3 carboxylic acid] | 0.15 (≈ 0.31 µM) | 0.3 (≈ 0.619 µM) | > 25 | 25 (≈ 51.6 µM) | 0.3 (≈ 0.619 µM) | 0.7 (≈ 1.44 µM) | 0.3 (≈ 0.619 µM) | 1.5 (≈ 3.1 µM) | 3 (≈ 6.19 µM) | 6 (≈ 12.4 µM) | 0.7 (≈ 1.44 µM) | 0.7 (≈ 1.44 µM) | – |
| CCOC(=O)c1ccc(NC(=O)NCC2CCN(c3c(F)cc4c(=O)c(C(=O)O)cn(CC)c4c3F)CC2)cc1 [Compound 15, 7-[4-(4-ethoxycarbonylphenyl)aminocarbonylaminomethylpiperidinyl-1] 6,8-difluoro 1-ethyl] | 0.12 (≈ 0.216 µM) | 0.12 (≈ 0.216 µM) | > 16 | > 16 | 0.12 (≈ 0.216 µM) | 0.25 (≈ 0.449 µM) | 1 (≈ 1.8 µM) | 2 (≈ 3.59 µM) | > 16 | > 16 | > 16 | > 16 | – |
| CCn1cc(C(=O)O)c(=O)c2cc(F)c(N3CCC(CNC(=O)Nc4ccc(C)cc4)CC3)c(F)c21 [Compound 12] | 0.06 (≈ 0.12 µM) | 0.06 (≈ 0.12 µM) | 4 (≈ 8.02 µM) | 4 (≈ 8.02 µM) | 0.06 (≈ 0.12 µM) | 0.06 (≈ 0.12 µM) | 0.25 (≈ 0.501 µM) | 1 (≈ 2.01 µM) | > 16 | > 16 | > 16 | > 16 | – |
| CCn1cc(C(=O)O)c(=O)c2cc(F)c(N3CCC(CN)CC3)c(F)c21 [Compound a, 7-(4-aminomethylpiperidinyl-1) 6,8-difluoro 1-ethyl 4-oxo 1,4-dihydroquinoleinyl-3 carboxylic acid] | – | – | – | – | – | – | – | – | – | – | – | – | Minimal bactericidal concentration (MBC) ([1]; S. aureus ATCC 25923): 0,25 μg/ml; Minimal inhibitory concentration (MIC) [1, 6]: 0,25 μg/ml; Minimal bactericidal concentration (MBC) ([2]; S. faecalis ATCC 8043): 0,5 μg/ml; Minimal inhibitory concentration (MIC) [2, 7]: 0,5 μg/ml; Minimal bactericidal concentration (MBC) ([3]; Acinetobacter Baumanii ATCC 17904): 0,25 μg/ml; Minimal inhibitory concentration (MIC) [3, 8]: 0,25 μg/ml; Minimal bactericidal concentration (MBC) (S. aureus CB-951; S. aureus CB-951, methicillino): 2 µg/mL (≈ 5.47 µM); Minimal inhibitory concentration (MIC) (S. aureus CB-951; [9]): 2 µg/mL (≈ 5.47 µM); Minimal bactericidal concentration (MBC) ([4]; P. aeruginosa ATCC 22853): 4 µg/mL (≈ 10.9 µM); Minimal inhibitory concentration (MIC) [4, 10]: 2 µg/mL (≈ 5.47 µM); Minimal bactericidal concentration (MBC) [5]: 0,5 μg/ml; Minimal inhibitory concentration (MIC) [5, 11]: 0,5 μg/ml |
| CCC(=O)NCC1CCN(c2c(F)cc3c(=O)c(C(=O)O)cn(CC)c3c2F)CC1 [Compound 7, 7-[(4-propionylaminomethyl)piperidinyl-1] 6,8-difluoro 1-ethyl 4-oxo 1,4-dihydroquinoleinyl-3 carboxylic acid] | 0.5 (≈ 1.19 µM) | 0.51 (≈ 1.21 µM) | 8 (≈ 19 µM) | 8 (≈ 19 µM) | 0.25 (≈ 0.593 µM) | 0.5 (≈ 1.19 µM) | 1 (≈ 2.37 µM) | 1 (≈ 2.37 µM) | > 16 | > 16 | 8 (≈ 19 µM) | 8 (≈ 19 µM) | – |
| NCC1CCN(c2c(F)cc3c(=O)c(C(=O)O)cn(CCF)c3c2F)CC1 [Compound 3, 7-(4-aminomethylpiperidinyl-1) 6,8-difluoro 1-fluoroethyl 4-oxo 1,4-dihydroquinoleinyl-3 carboxylic acid] | 0.5 (≈ 1.3 µM) | 1 (≈ 2.61 µM) | 4 (≈ 10.4 µM) | 2 (≈ 5.22 µM) | 2 (≈ 5.22 µM) | 4 (≈ 10.4 µM) | 4 (≈ 10.4 µM) | 8 (≈ 20.9 µM) | 8 (≈ 20.9 µM) | 16 (≈ 41.7 µM) | 2 (≈ 5.22 µM) | 2 (≈ 5.22 µM) | – |
| CCC(=O)NCC1CCN(c2c(F)cc3c(=O)c(C(=O)O)cn(CCF)c3c2F)CC1 [Compound 8, 7-[(4-propionylaminomethyl)piperidinyl-1] 6,8-difluoro1-fluoroethyl 4-oxo 1,4-dihydroquinoleinyl-3 carboxylic acid] | 0.15 (≈ 0.341 µM) | 0.3 (≈ 0.683 µM) | > 12 | 6 (≈ 13.7 µM) | 0.3 (≈ 0.683 µM) | 0.7 (≈ 1.59 µM) | 0.3 (≈ 0.683 µM) | 0.7 (≈ 1.59 µM) | > 12 | > 12 | 6 (≈ 13.7 µM) | > 12 | – |
